This is an account of results in patent US10287267B2, “Isoquinolin-3-yl carboxamides and preparation and use thereof” (Samumed, LLC, priority 2016, dated 2019).

The target in one assay is recombinant GSK3β kinase (Homo sapiens (Human), UniProt P49841). As to the kind of experiment: GSK3β kinase assay (Ser/Thr 09 peptide Z-lyte FRET).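 Note: kinase activity read as coumarin to fluorescein emission ratio, 11-point threefold dilutions from 10 µM to 0.0003 µM in duplicate, unphosphorylated and phosphorylated peptide as 0% and 100% controls.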 The assay is classed as biochemical. Conditions: 46 μM ATP, 1 h room temperature.
For a further assay, the system named is IL-6. As to the kind of experiment: IL-6 inhibition in LPS-stimulated human peripheral blood mononuclear cells (HTRF).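 For all read-outs here: IL-6 detected by HTRF with an XL665- and Cryptate-labelled anti-IL-6 antibody pair, samples run in duplicate, EC50 obtained from a four-parameter Levenberg-Marquardt curve fit.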 The format is cell-based. To be noted: Homo sapiens, PBMC; for EC50: Table 9, huPBMCs, LPS 50 ng/mL, 22 hours, dose-response starting from 10 μM; for inhibition at 10 µM: read-out: percent value in parentheses beside EC50 >10 μM. (In general: In TR-FRET formats the signal depends on donor and acceptor labels being close together.)

Assay [1] deals with Tau phosphorylation at Ser396 (pSer396). As to the kind of experiment: Tau phosphorylation assay (pSer396 ELISA / western blot) in SH-SY5Y cells.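 Note: EC50 for reduction of Tau pSer396 in lysed cells, measured by colorimetric ELISA or chemiluminescent western blot, both using the same pSer396 antibody.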 The assay is classed as cell-based, human. Conditions: Homo sapiens, read-out: pSer396 Tau EC50. For orientation: ELISA stands for enzyme-linked immunosorbent assay.
Method: Two days before treatment, cells were seeded onto 96 well plates at 5×10^4 cells/well.
Wells were visually checked for cell death or change in morphology and supernatants were tested for cytotoxicity by measurement of lactate dehydrogenase release (LDH, CytoToxOne kit, Promega) if necessary.
Cells were lysed with RIPA buffer complemented with phosphatase and protease inhibitors then lysates were spun down at 12,000 g for 10 min to remove any cellular debris. Lysates are then either directly tested for pSer396 by ELISA (Life Technology, Kit KHB7031) or loaded on NuPage Bis-Tris gels for western blot analysis. Colorimetric detection of ELISA signal is performed by Cytation3 plate reader (Biotek) and the chemiluminescence signal for HRP-linked antibodies used in western blotting is detected using a Carestream Image Station. The same pSer396 antibody is used for detection of pTau in both assays.
Assay [2] relates to SW480 colon carcinoma cells. As to the kind of experiment: Cell viability assay (CellTiter-Glo). The assay is classed as cell-based, human. To be noted: Homo sapiens; for EC50: 96 h, SW480 cells, CellTiter-Glo, four days incubation; for inhibition at 10 µM: SW480, read-out: percent inhibition at 10 μM. For orientation: ATP-based viability assays read luminescence as a measure of living cells.

For assay [3], the target named is recombinant DYRK1A kinase (Homo sapiens (Human), UniProt Q13627). As to the kind of experiment: DYRK1A kinase assay (Ser/Thr 18 peptide Z-lyte FRET).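 Note: Read-out is the coumarin to fluorescein emission ratio, referenced to unphosphorylated (0%) and phosphorylated (100%) Ser/Thr 18 peptide controls, values from dose-response curves by non-linear regression.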 Conditions: 30 μM ATP, 1 h room temperature. The assay is classed as biochemical.
Assay [4] has as its system Wnt pathway (Sp5-Luc reporter, TCF/LEF binding sites) in SW480 colon carcinoma cells. As to the kind of experiment: Screening assay for Wnt activity: Sp5-Luc reporter gene assay.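 For all read-outs here: firefly luciferase luminescence read in stably transduced SW480 cells carrying the Sp5 promoter reporter with eight TCF/LEF sites, compounds given in 0.1% DMSO final.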 The format is cell-based, human. Conditions: Homo sapiens; for EC50: Sp5-Luc reporter, SW480 cells, 36 to 48 hours; for inhibition at 10 µM: SW480, read-out: percent inhibition at 10 μM.
Method: The screening assay for Wnt activity is described as follows.
Following incubation, 15 μl of BriteLite Plus luminescence reagent (Perkin Elmer) was added to each well of the 384-well assay plates. The plates were placed on an orbital shaker for 2 min and then luminescence was quantified using the Envision (Perkin Elmer) plate reader.
The subject of assay [5] is α-smooth muscle actin (αSMA) positive LL29 cells. As to the kind of experiment: Inhibition of fibrotic process: αSMA in TGF-β1 treated primary human fibroblasts from IPF patients.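 For all read-outs here: controls were TGF-β1 stimulated wells with DMSO vehicle (positive) and cells given DMSO alone (negative), cultured in F12 medium with 1% fetal bovine serum.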 The format is cell-based. Conditions: Homo sapiens, Fibroblast; for EC50: 96 h, Table 8, LL29 fibroblasts from IPF patients, TGF-β1 20 ng/mL, 4 days, dose-response 10 μM to 0.94 nM; for inhibition at 10 µM: read-out: percent value in parentheses beside EC50 >10 μM.

The mark [6] stands for this setting: SH-SY5Y cells, overnight (16-18 h) exposure.

Like-named read-outs stand apart in the source and are kept apart here. Where only a bound is given, the exact number is not on record here.

Chain of recombinant GSK3β kinase (P49841 whole entry): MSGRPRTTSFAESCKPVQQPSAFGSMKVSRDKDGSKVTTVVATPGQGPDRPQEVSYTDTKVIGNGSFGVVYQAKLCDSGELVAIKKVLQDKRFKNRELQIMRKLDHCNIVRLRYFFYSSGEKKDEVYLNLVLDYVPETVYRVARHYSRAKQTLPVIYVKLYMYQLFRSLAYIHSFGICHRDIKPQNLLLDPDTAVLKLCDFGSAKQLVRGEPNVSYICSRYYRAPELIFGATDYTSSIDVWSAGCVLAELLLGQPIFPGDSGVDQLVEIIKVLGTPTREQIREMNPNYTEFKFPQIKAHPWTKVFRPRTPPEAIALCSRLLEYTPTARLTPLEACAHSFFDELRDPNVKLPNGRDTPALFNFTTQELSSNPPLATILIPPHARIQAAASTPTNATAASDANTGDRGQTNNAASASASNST
Method for IL-6: After 22 hour incubation, a mixture of anti-IL6 XL665 and anti-IL-6 Cryptate diluted in reconstitution buffer (Catalog #62IL6PEC, Cisbio Inc., Bedford, Mass.) was added to each well. […] All samples were processed in duplicate. […] EC50 was determined using software generated by Dotmatics Limited (Windhill Bishops Stortford Herts, UK) using the Levenberg-Marquardt 4 parameter fitting procedure with finite different gradients.

In general, EC50 refers to the concentration giving half of the maximal effect. Take `Cn1cc(-c2ccc3cnc(NC(=O)CN4CCCCC4)cc3c2)nn1` [Compound 276, N-(6-(1-methyl-1H-1,2,3-triazol-4-yl)isoquinolin-3-yl)-2-(piperidin-1-yl) acetamide]: the concentration giving a half-maximal response (EC50) on recombinant GSK3β kinase was 6 nM; with IL-6 it was 2920 nM; in assay [1] (setting [6]), 150 nM; in assay [2], above 10000 nM; in assay [3], 5.1 nM; in assay [4], 5180 nM. Besides, the EC50 in assay [5] is 336 nM. The inhibition at 10 µM in assay [2] came to 29.6%.
As for `Cn1cc(-c2ccc3cnc(NC(=O)C4C(C)(C)C4(C)C)cc3c2)nn1` [Compound 277, 2,2,3,3-Tetramethyl-N-(6-(1-methyl-1H-1,2,3-triazol-4-yl)isoquinolin-3-yl) cyclopropane-1-carboxamide], the half-maximal effective concentration (EC50) on recombinant GSK3β kinase was 104 nM; in the assay with IL-6, above 10000 nM; in assay [1] (SH-SY5Y), 1080 nM; in assay [2] it was 1400 nM; in assay [3] it was 2.3 nM; in assay [4], 5260 nM. Also, in assay [5], the EC50 worked out at 245 nM. In addition, in the assay with IL-6, the inhibition at 10 µM turned out to be 4%.
Consider `Cc1nnc(-c2ccc3cnc(NC(=O)C4CCN(CCC(F)(F)F)CC4)cc3c2)n1C` [Compound 279, N-(6-(4,5-Dimethyl-4H-1,2,4-triazol-3-yl)isoquinolin-3-yl)-1-(3,3,3-trifluoropropyl)piperidine-4-carboxamide], for which the concentration for a half-maximal effect (EC50) on recombinant GSK3β kinase was 14 nM; with IL-6, above 10000 nM; in assay [1] (setting [6]), 498 nM; in assay [2], above 10000 nM; in assay [3], 7.8 nM; in assay [4], 5650 nM. In assay [5], the concentration giving a half-maximal response (EC50) is 1200 nM. Moreover, the inhibition at 10 µM stood at 14.2% with IL-6 and 52.4% in assay [2].
For `CC(C)CN1CCC(F)(C(=O)Nc2cc3cc(-c4nncn4C)ccc3cn2)CC1` [Compound 280, 4-Fluoro-1-isobutyl-N-(6-(4-methyl-4H-1,2,4-triazol-3-yl)isoquinolin-3-yl) piperidine-4-carboxamide], the EC50 at recombinant GSK3β kinase was 185 nM; with IL-6, above 10000 nM; in assay [1] (setting [6]), 677 nM; in assay [2], 9570 nM; in assay [3] it was 10.8 nM; in assay [4], 2320 nM. Besides, in assay [5], the midpoint of the response, the EC50, lay at 909 nM. The inhibition at 10 µM with IL-6 is 11.6%.
For `CC(C)CN1CCC(F)(C(=O)Nc2cc3cc(-c4cn(C)nn4)ccc3cn2)CC1` [Compound 281, 4-Fluoro-1-isobutyl-N-(6-(1-methyl-1H-1,2,3-triazol-4-yl)isoquinolin-3-yl) piperidine-4-carboxamide], the concentration giving a half-maximal response (EC50) at recombinant GSK3β kinase was 71 nM; in the assay on IL-6, above 10000 nM; in assay [1] (setting [6]) it was 518 nM; in assay [2], above 10000 nM; in assay [3], 8.1 nM; in assay [4], above 10000 nM. For the same molecule, a half-maximal response in assay [5] (EC50) required 486 nM. Besides, the inhibition at 10 µM with IL-6 is 0%; in assay [4], 47%.
For `CCN1CCC(F)(C(=O)Nc2cc3cc(-c4cn(C)nn4)ccc3cn2)CC1` [Compound 282, 1-Ethyl-4-fluoro-N-(6-(1-methyl-1H-1,2,3-triazol-4-yl)isoquinolin-3-yl) piperidine-4-carboxamide], the EC50 on recombinant GSK3β kinase is 134 nM; with IL-6 it was above 10000 nM; in assay [1] (setting [6]), 973 nM; in assay [2], 6610 nM; in assay [3], 11.5 nM; in assay [4] it was above 10000 nM. In assay [5], this molecule came in with an EC50 of 1940 nM. Further, the inhibition at 10 µM in the assay with IL-6 came to 2.4%; in assay [4] it was 49.3%.
For the molecule `O=C(Nc1cc2cc(-c3cnn4c3CN(CCF)CC4)ccc2cn1)C1CCC(F)(F)CC1` [Compound 283, 4,4-Difluoro-N-(6-(5-(2-fluoroethyl)-4,5,6,7-tetrahydropyrazolo[1,5-a]pyrazin-3-yl)isoquinolin-3-yl)cyclohexane-1-carboxamide], the EC50 on recombinant GSK3β kinase was determined as 62 nM; in the assay on IL-6 it was 5450 nM; in assay [1] (setting [6]), 411 nM; in assay [2], 3120 nM; in assay [3] it was 7 nM; in assay [4], 2490 nM. Further, the EC50 in assay [5] stood at 782 nM.
On to `Cn1cc(-c2ccc3cnc(NC(=O)CN4CCCC4)cc3c2)cn1` [Compound 284, N-(6-(1-Methyl-1H-pyrazol-4-yl)isoquinolin-3-yl)-2-(pyrrolidin-1-yl) acetamide], for which the EC50 at recombinant GSK3β kinase was determined as 37 nM; in the assay with IL-6 it was 1180 nM; in assay [1] (setting [6]), 359 nM; in assay [2], 2670 nM; in assay [3] it was 7.1 nM; in assay [4] it was 1870 nM. The same molecule registered an EC50 in assay [5] of 2340 nM.
Take `CCn1cc(-c2ccc3cnc(NC(=O)CN4CCCC4)cc3c2)cn1` [Compound 285, N-(6-(1-Ethyl-1H-pyrazol-4-yl)isoquinolin-3-yl)-2-(pyrrolidin-1-yl) acetamide]: the concentration giving a half-maximal response (EC50) is 149 nM at recombinant GSK3β kinase; 2270 nM with IL-6; 1580 nM in assay [1] (setting [6]); 7020 nM in assay [2]; 44.2 nM in assay [3]; 3400 nM in assay [4]. In assay [5], this molecule returned a concentration giving a half-maximal response (EC50) of 1470 nM.
In the case of `O=C(CN1CCCC1)Nc1cc2cc(-c3cnn(C4CC4)c3)ccc2cn1` [Compound 286, N-(6-(1-Cyclopropyl-1H-pyrazol-4-yl)isoquinolin-3-yl)-2-(pyrrolidin-1-yl) acetamide], the EC50 stood at 186 nM at recombinant GSK3β kinase; 1230 nM with IL-6; 1150 nM in assay [1] (setting [6]); 3290 nM in assay [2]; 64.9 nM in assay [3]; 3140 nM in assay [4]. This molecule also came in with a concentration giving a half-maximal response (EC50) in assay [5] above 10000 nM. Further, the inhibition at 10 µM in assay [5] is 16.4%.
Turning to `CC(C(=O)Nc1cc2cc(-c3cnn(C)c3)ccc2cn1)N1CCCC1` (centres unmarked) [Compound 288, N-(6-(1-Methyl-1H-pyrazol-4-yl)isoquinolin-3-yl)-2-(pyrrolidin-1-yl) propanamide], the concentration giving a half-maximal response (EC50) turned out to be 20 nM at recombinant GSK3β kinase; 1240 nM with IL-6; 159 nM in assay [1] (setting [6]); 2660 nM in assay [2]; 27.3 nM in assay [3]; 1200 nM in assay [4]. It took 532 nM to reach a half-maximal effect in assay [5] (EC50).
Turning to `C[C@@H]1CCCN1CC(=O)Nc1cc2cc(-c3cnn(C)c3)ccc2cn1` [Compound 289, (R)—N-(6-(1-Methyl-1H-pyrazol-4-yl)isoquinolin-3-yl)-2-(2-methylpyrrolidin-1-yl)acetamide], the EC50 on recombinant GSK3β kinase stood at 62 nM; in the assay on IL-6, 3200 nM; in assay [1] (setting [6]), 185 nM; in assay [2] it was 7760 nM; in assay [3], 13.7 nM; in assay [4], 2650 nM. This molecule also registered an EC50 in assay [5] above 10000 nM. Also, the inhibition at 10 µM in assay [5] came out at 14.3%.
Regarding `C[C@H]1CCCN1CC(=O)Nc1cc2cc(-c3cnn(C)c3)ccc2cn1` [Compound 290, (S)—N-(6-(1-Methyl-1H-pyrazol-4-yl)isoquinolin-3-yl)-2-(2-methylpyrrolidin-1-yl)acetamide], the concentration giving a half-maximal response (EC50) came to 75 nM at recombinant GSK3β kinase; 4780 nM in the assay on IL-6; 490 nM in assay [1] (setting [6]); 3780 nM in assay [2]; 5.8 nM in assay [3]; 5230 nM in assay [4]. Moreover, in assay [5], it took 1060 nM to reach a half-maximal effect (EC50).
Turning to `Cn1cc(-c2ccc3cnc(NC(=O)CN4CC5CC5C4)cc3c2)cn1` (centres unmarked) [Compound 291, 2-(3-Azabicyclo[3.1.0]hexan-3-yl)-N-(6-(1-methyl-1H-pyrazol-4-yl)isoquinolin-3-yl)acetamide], the EC50 was 43 nM at recombinant GSK3β kinase; 9830 nM in the assay with IL-6; 716 nM in assay [1] (setting [6]); above 10000 nM in assay [2]; 8.2 nM in assay [3]; 4640 nM in assay [4]. The molecule further registered an EC50 in assay [5] above 10000 nM. Besides, the results for the inhibition at 10 µM in assay [2] and in assay [5] were 24.4% and 49.6%, respectively.
With `Cn1cc(-c2ccc3cnc(NC(=O)CN4C5CCC4CC5)cc3c2)cn1` [Compound 292, 2-(7-Azabicyclo[2.2.1]heptan-7-yl)-N-(6-(1-methyl-1H-pyrazol-4-yl)isoquinolin-3-yl)acetamide], the EC50 at recombinant GSK3β kinase stood at 173 nM; in the assay on IL-6, 1120 nM; in assay [1] (SH-SY5Y) it was 1350 nM; in assay [2], 2820 nM; in assay [3], 7.8 nM; in assay [4], 3380 nM. In assay [5], this molecule returned an EC50 of 2220 nM.
With `CC1CCN(CC(=O)Nc2cc3cc(-c4cnn(C)c4)ccc3cn2)CC1` [Compound 293, N-(6-(1-Methyl-1H-pyrazol-4-yl)isoquinolin-3-yl)-2-(4-methylpiperidin-1-yl)acetamide], the 50% effective concentration (EC50) worked out at 59 nM at recombinant GSK3β kinase; 1170 nM with IL-6; 668 nM in assay [1] (setting [6]); 2860 nM in assay [2]; 5 nM in assay [3]; 3220 nM in assay [4]. The same molecule yielded a concentration for a half-maximal effect (EC50) in assay [5] of 7770 nM.
